# Test results: patent US20080171783A1, “COMPOSITIONS AND METHODS FOR TREATING HYPERPROLIFERATIVE DISEASE” (Migenix Inc., priority 2006, published 2008)
# Assays:
# Calf polymerase alpha = biological target: T1, Calf polymerase alpha (Bos taurus, UniProt A0AAA9TD94); assay: Calf polymerase alpha inhibition (Replizyme kit); format: biochemical; conditions: for inhibition at 10 µM / % Inhibition: single point screening, at 10 μM; for IC50: dose response
# T1 construct: purchased Replizyme Ltd (Heslington, York, UK)
# T1 sequence (A0AAA9TD94 1-1441): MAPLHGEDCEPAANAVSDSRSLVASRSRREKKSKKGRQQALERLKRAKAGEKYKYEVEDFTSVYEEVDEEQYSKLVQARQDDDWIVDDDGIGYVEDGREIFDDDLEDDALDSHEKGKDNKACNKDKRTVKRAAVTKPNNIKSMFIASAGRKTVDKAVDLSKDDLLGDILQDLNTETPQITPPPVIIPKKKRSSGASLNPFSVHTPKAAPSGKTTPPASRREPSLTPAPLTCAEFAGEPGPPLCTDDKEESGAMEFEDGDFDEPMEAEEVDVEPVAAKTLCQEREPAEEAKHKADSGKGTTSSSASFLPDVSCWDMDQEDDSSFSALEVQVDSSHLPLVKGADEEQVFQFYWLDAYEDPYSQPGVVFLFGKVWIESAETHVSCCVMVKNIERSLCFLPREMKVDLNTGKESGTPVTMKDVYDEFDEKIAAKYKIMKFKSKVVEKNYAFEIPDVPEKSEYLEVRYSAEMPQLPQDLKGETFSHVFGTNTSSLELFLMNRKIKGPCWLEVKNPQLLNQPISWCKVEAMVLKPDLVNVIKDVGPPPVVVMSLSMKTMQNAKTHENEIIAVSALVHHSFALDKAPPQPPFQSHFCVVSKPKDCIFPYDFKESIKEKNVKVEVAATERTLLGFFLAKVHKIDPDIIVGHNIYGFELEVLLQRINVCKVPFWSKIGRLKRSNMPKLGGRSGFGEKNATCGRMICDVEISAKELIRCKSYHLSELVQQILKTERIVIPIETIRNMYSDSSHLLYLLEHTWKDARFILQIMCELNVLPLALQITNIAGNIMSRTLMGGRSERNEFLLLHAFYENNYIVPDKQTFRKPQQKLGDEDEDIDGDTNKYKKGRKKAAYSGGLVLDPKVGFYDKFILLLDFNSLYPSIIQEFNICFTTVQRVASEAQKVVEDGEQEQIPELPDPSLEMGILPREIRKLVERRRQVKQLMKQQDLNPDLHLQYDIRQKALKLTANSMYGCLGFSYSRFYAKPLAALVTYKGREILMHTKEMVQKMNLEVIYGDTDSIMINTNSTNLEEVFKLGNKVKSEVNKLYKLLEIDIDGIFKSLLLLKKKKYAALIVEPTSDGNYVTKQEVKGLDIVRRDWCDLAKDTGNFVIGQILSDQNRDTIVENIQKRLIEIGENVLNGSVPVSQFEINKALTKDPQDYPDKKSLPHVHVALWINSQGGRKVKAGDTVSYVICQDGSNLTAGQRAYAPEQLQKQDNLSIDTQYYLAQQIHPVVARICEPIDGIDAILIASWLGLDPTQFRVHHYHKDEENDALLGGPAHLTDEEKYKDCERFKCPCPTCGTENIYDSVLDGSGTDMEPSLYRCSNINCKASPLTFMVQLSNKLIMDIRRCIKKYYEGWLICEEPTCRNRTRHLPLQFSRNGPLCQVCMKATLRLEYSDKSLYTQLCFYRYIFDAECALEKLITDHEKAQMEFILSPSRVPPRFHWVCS
# Protocol: Calf polymerase alpha and human polymerase alpha investigations were performed with a kit available from Replizyme Ltd (Heslington, York, UK).
# [1] = Cytotoxicity Huh-7 cells (MTS/PMS); format: cell-based; conditions: human, 3-day incubation
# Protocol: Cytotoxicity of compounds for use in treating hyperproliferative diseases or disorders was tested in Huh-7 cells using tetrazolium salt MTS combined with the electron acceptor PMS in a 96-well format. Six doses of each compound was tested, starting at about 1.2 μM to 0.4 μM serially diluted in a final 1% DMSO solution in DMEM/F12 media. Terfenadine was used as a positive control. Cells were seeded at 2.5×10^5 cells/mL in each well of the 96-well plates in a final volume of 0.1 mL, and then incubated at 37° C. in the presence of 5% CO2 overnight. Compounds (in media) were added the following day and the treated cells were incubated another 3-days at 37° C. in the presence of 5% CO2. After the 3-day incubation, 20 μL of MTS/PMS (3-(4,5-dimethylthiazol-2-yl)-5-(3-carboxymethoxy-phenyl)-2-(4-sulfophenyl)-2H-tetrazolium) was added to each well. After about a one to four hour incubation of MTS/PMS at 37° C. and 5% CO2—that is, until an OD490 absorbance of ≧0.6 for the wells containing cells with media only, the level of cytotoxicity at each concentration was calculated. […] Dose response results from the cytotoxicity assay (CC50) are provided in Table 4 in comparison with IC50 data (from Table 2)
# [2] = system: 5 Leukemia and 5 Colon Cancer Cell Lines; assay: Cell viability by XTT, cell line panel; format: cell-based; conditions: for Range (Percentage of Control over the same 10 cell lines) / ARF (Average Response Factor, Average Percentage of Control): 10 μM; for Range (Percentage of Control over the same 10 cell lines): lowest to highest of the ten cell lines; for viability at 10 µM / ARF (Average Response Factor, Average Percentage of Control): average of the ten Percentage of Control values; for viability at 10 µM: read-out: ARF (Average Response Factor, Average Percentage of Control)
# Protocol: Compounds were solubilized at […] in DMSO and were stored at −20° C. Test compounds were initially tested at a single concentration of 10 μM and a subset of test compounds were further tested in selected cell lines using a six concentration dose response curve.
# Cell Preparation Cancer cell lines were passaged in T-75 flasks prior to use in the assay in cell culture medium recommended by the ATCC (American Type Culture Collection; Table 6). On the day preceding the assay, the cells were split 1:2 to assure they were in an exponential growth phase at the time of compound treatment. Total cell and viability quantification was performed using a hemocytometer and Trypan Blue dye exclusion. […] The cells were resuspended at the appropriate cell per mL (Table 6) in tissue culture medium and added to the microtitre plates in a volume of 100 μL. Colon cell lines were incubated overnight at 37° C./5% CO2 to allow for cell adherence to the plates.
# Plate Format: Each plate contains cell control wells (cells only), drug calorimetric control wells (drug only) as well as experimental wells (drug plus cells). Samples were tested in triplicate at a concentration of 10 μM and five half-logarithmic dilutions.
# Cell Viability by XTT: Following incubation at 37° C. in a 5% CO2 incubator for four days, the test plates were stained with the tetrazolium dye XTT (2,3-bis(2-methoxy-4-nitro-5-sulfophenyl)-5-[(phenylamino)carbonyl]-2H-tetrazolium hydroxide). XTT-tetrazolium was metabolized by the mitochondrial enzymes of metabolically active cells to a soluble formazan product. XTT solution was prepared daily as a stock of 1 mg/mL in RPMI1640. Phenazine methosulfate (PMS) solution was prepared at 0.15 mg/mL in phosphate buffered saline (PBS) and stored in the dark at −20° C. XTT/PMS stock was prepared immediately before use by adding 40 μL of PMS per mL of XTT solution. Fifty (50) microlitres of XTT/PMS was added to each well of the plate and the plate was reincubated for 4 hours at 37° C. Plates were sealed with adhesive plate sealers and shaken gently or inverted several times to mix the soluble formazan product and the plate was read spectrophotometrically at 450/650 nm with a Molecular Devices Vmax plate reader. […] An Average Response Factor (ARF) was calculated for each compound by averaging the ten Percentage of Control values for the cell lines. […] Deviations below 100% control indicate activity. The concentration of each tested compound is 10 μM.
Structure (SMILES),inhibition at 10 µM (Calf polymerase alpha),IC50 (Calf polymerase alpha),CC50 at 3 days [1],Range (Percentage of Control over the same 10 cell lines) [2],viability at 10 µM [2],% Inhibition (Calf polymerase alpha),"ARF (Average Response Factor, Average Percentage of Control) [2]"
"Cc1ccc(NC(=O)[C@@H](CCCCN)NC(=O)Nc2ccc(OCc3ccccc3)cc2)cc1 [Compound 172, (R)-6-AMINO-2-[3-(4-BENZYLOXY-PHENYL)-UREIDO]-HEXANOIC ACID P-TOLYLAMIDE]",60%,7.3 µM,26 µM,,,,
"Cc1cc2cc(NC(=O)[C@H](CCCCN)NC(=O)Nc3ccc(OCc4ccccc4)cc3)ccc2[nH]1 [Compound 206, (S)-6-AMINO-2-[3-(4-BENZYLOXY-PHENYL)-UREIDO]-HEXANOIC ACID (2-METHYL-1H-INDOL-5-YL)-AMIDE]",87%,,,81.4 to 107.6%,92.9%,,
"Cc1ccc(NC(=O)[C@H](CCCCN)NC(=O)Nc2cccc(Cc3ccccc3)c2)cc1 [Compound 212, (S)-6-AMINO-2-[3-(3-BENZYL-PHENYL)-UREIDO]-HEXANOIC ACID P-TOLYLAMIDE]",,,,52.7 to 118.6%,,97%,94.2%
"NCCCC[C@H](NC(=O)OCC1c2ccccc2-c2ccccc21)C(=O)Nc1ccc(CN)cc1 [Compound 228, (S)-[5-AMINO-1-(4-AMINOMETHYL-PHENYLCARBAMOYL)-PENTYL]-CARBAMIC ACID 9H-FLUOREN-9-YLMETHYL ESTER]",,5.5 µM,36.7 µM,,,,
"Cc1ccc(NC(=O)C[C@H](CCCCN)NC(=O)Nc2ccc3c(c2)Cc2ccccc2-3)cc1 [Compound 247, (S)-7-AMINO-3-[3-(9H-FLUOREN-2-YL)-UREIDO]-HEPTANOIC ACID P-TOLYLAMIDE]",,,,28.5 to 104.3%,,87%,85.6%
"CC1CCC(NC(=O)[C@H](CCCCN)NC(=O)Nc2ccc(OCc3ccccc3)cc2)CC1 (stereo partly drawn) [Compound 264, (S)-6-AMINO-2-[3-(4-BENZYLOXY-PHENYL)-UREIDO]-HEXANOIC ACID (4-METHYL-CYCLOHEXYL)-AMIDE]",41%,16 µM,26.6 µM,,,35%,
"NCc1ccc(NC(=O)[C@@H](NC(=O)Nc2ccc(OCc3ccccc3)cc2)c2ccccc2)cc1 [Compound 305, (S)—N-(4-AMINOMETHYL-PHENYL)-2-[3-(4-BENZYLOXY-PHENYL)-UREIDO]-2-PHENYL-ACETAMIDE]",104%,,,30.9 to 105.9%,79.5%,,
"NCCCCCCNC(=O)[C@@H](NC(=O)Nc1ccc(OCc2ccccc2)cc1)c1ccccc1 [Compound 319, (S)—N-(6-AMINO-HEXYL)-2-[3-(4-BENZYLOXY-PHENYL)-UREIDO]-2-PHENYL-ACETAMIDE]",71%,,,80.0 to 116.4%,95.6%,,
"NCCCC[C@H](NC(=O)Nc1ccc(OCc2ccccc2)cc1)C(=O)Nc1cccc2c1CCC2 [Compound 321, (S)-6-AMINO-2-[3-(4-BENZYLOXY-PHENYL)-UREIDO]-HEXANOIC ACID INDAN-4-YLAMIDE]",101%,,,55.9 to 109.3%,88%,,
"NCCCCN(CC(=O)Nc1ccc(C2CCCCC2)cc1)C(=O)Nc1ccc(C=Cc2ccccc2)cc1 [Compound 324, 2-[1-(4-AMINO-BUTYL)-3-(4-STYRYL-PHENYL)-UREIDO]-N-(4-CYCLOHEXYL-PHENYL)-ACETAMIDE]",92.5%,,,69.3 to 109.9%,95.8%,,
"Cc1ccc(NC(=O)[C@H](CCCCN)NC(=O)CNc2ccccc2Oc2ccccc2)cc1 [Compound 366, (S)-6-AMINO-2-[2-(2-PHENOXY-PHENYLAMINO)-ACETYLAMINO]-HEXANOIC ACID P-TOLYLAMIDE]",,,,64.8 to 121.1%,,100%,100.4%
"Cc1ccc(NC(=O)[C@H](CCCCN)NC(=O)CNc2ccc(Oc3ccccc3)cc2)cc1 [Compound 368, (S)-6-AMINO-2-[2-(4-PHENOXY-PHENYLAMINO)-ACETYLAMINO]-HEXANOIC ACID P-TOLYLAMIDE]",,6 µM,58 µM,,,,
